Structures can show the parent of a compound that is named as a salt.
Legend:
[1] = biological target: T1, D2 receptors (Chlorocebus aethiops, UniProt P52702); assay: Assay for D2 receptor binding activity (3H-YM 09151-2 displacement); design: species or system African Green monkey; conditions: COS cell pellets with recombinant receptor; 0.5 nM 3H-YM 09151-2; test compounds are acid addition salts
T1 construct: expressed in transfected cells; host or cells: COS cells
Procedure: Assay for D2 and D4 Receptor Binding Activity
Pellets of COS cells containing recombinantly produced D2 or D4 receptors from African Green monkey are used for the assays. The sample is homogenized in 100 volumes (w/vol) of 0.05 M Tris HCl buffer at 4° C. and pH 7.4. The sample is then centrifuged at 30,000× g and resuspended and rehomogenized. The sample is again centrifuged as described above and the final tissue sample is frozen until use. The tissue is resuspended 1:20 (wt/vol) in 0.05 M Tris HCl buffer containing 100 mM NaCl.
Incubations are carried out at […] and contain 0.4 ml of tissue sample, 0.5 nM ^3H-YM 09151-2 (Nemonapride, cis-5-Chloro-2-methoxy-4-(methylamino)-N-(2-methyl-2-(phenylmethyl)-3-pyrrolidinyl)benzamide)and the test compound in a total incubation of 1.0 ml. Nonspecific binding is defined as that binding found in the presence of 1 mM spiperone; without further additions, nonspecific binding is less than 20% of total binding. Binding characteristics of examples of the invention for the D2 and D4 receptor subtypes are shown in Table 2 for […].

T1 sequence (P52702 whole entry): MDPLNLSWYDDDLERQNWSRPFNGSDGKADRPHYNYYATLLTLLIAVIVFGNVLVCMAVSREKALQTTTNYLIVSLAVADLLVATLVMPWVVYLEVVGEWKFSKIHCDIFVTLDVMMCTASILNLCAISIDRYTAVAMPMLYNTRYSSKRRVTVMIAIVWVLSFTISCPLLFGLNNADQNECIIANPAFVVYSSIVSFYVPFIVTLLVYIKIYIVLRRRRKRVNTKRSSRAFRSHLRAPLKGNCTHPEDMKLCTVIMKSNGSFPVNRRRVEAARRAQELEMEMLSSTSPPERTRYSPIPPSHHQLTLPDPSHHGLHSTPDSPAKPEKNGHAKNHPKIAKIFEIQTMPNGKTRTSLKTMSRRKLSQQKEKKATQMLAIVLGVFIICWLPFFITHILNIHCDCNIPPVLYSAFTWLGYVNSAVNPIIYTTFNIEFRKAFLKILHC

Ki [1] | melting point | SMILES
> 100 nM | – | c1cnc(N2CCN(CCCNC3=Nc4ccccc4SC3)CC2)nc1 [Compound 4]
> 100 nM | – | Fc1cnc(N2CCN(CCNC3=Nc4ccccc4OC3)CC2)nc1 [Compound 6, 3-(1-[2-{(4-[5-Fluoropyrimidin-2-yl])piperazin-1-yl}]ethyl)amino-2H-1,4-benzoxazine fumarate]
> 1000 nM | – | c1cnc(N2CCN(CCCCNC3=Nc4ccccc4OC3)CC2)nc1 [Compound 1, 3-(1-[4-{(4-Pyrimidin-2-yl)piperazin-1-yl}]butyl) amino-2H-1,4-benzoxazine Difumarate]
– | 163 to 164 °C | Fc1cnc(N2CCN(CCNC3=Nc4ccccc4OC3)CC2)nc1 (as salt: fumarate) [Compound 6, 3-(1-[2-{(4-[5-Fluoropyrimidin-2-yl])piperazin-1-yl}]ethyl)amino-2H-1,4-benzoxazine fumarate]

— patent US6432946B1, “3-aminoalkylamino-2H-1,4-benzoxazines and 3-aminoalkylamino-2H-1,4-benzothiazines: dopamine receptor subtype specific ligands” (Neurogen corporation, priority 1997, dated 2002)
